Results: US11459318B2, “Pesticidally active pyrrole derivatives” (Syngenta Participations AG, priority 2017, dated 2022)

Experiments:
Type in all cases: in vivo
[1] = system: Tetranychus urticae (Two-spotted spider mite); experiment: Tetranychus urticae (Two-spotted spider mite): Feeding/contact activity; details: foliar, 192 h, application rate of 200 ppm, mite population of mixed ages (mobile stages) on bean leaf discs, assessed 8 days after infestation, read-out: control (mortality)
Method: Tetranychus urticae (Two-spotted spider mite): Feeding/contact activity
Bean leaf discs on agar in 24-well microtiter plates were sprayed with aqueous test solutions prepared from 10,000 ppm DMSO stock solutions. After drying the leaf discs were infested with a mite population of mixed ages. The samples were assessed for mortality on mixed population (mobile stages) 8 days after infestation.

[2] = system: Thrips tabaci (Onion Thrips); experiment: Thrips tabaci (Onion Thrips): Feeding/Contact activity; details: foliar, 144 h, application rate of 200 ppm, thrips population of mixed ages on sunflower leaf discs, assessed 6 days after infestation, read-out: control (mortality)
Method: Thrips tabaci (Onion Thrips): Feeding/Contact activity
Sunflower leaf discs were placed on agar in 24-well microtiter plates and sprayed with aqueous test solutions prepared from 10,000 ppm DMSO stock solutions. After drying the leaf discs were infested with a thrips population of mixed ages. The samples were assessed for mortality 6 days after infestation.

[3] = system: Myzus persicae (Green peach aphid); experiment: Myzus persicae (Green peach aphid): Feeding/Contact activity; details: foliar, 144 h, application rate of 200 ppm, aphid population of mixed ages on sunflower leaf discs, assessed 6 days after infestation, read-out: control (mortality)
Method: Myzus persicae (Green peach aphid): Feeding/Contact activity Sunflower leaf discs were placed onto agar in a 24-well microtiter plate and sprayed with aqueous test solutions prepared from 10,000 ppm DMSO stock solutions. After drying, the leaf discs were infested with an aphid population of mixed ages. The samples were assessed for mortality 6 days after infestation.

[4] = system: Diabrotica balteata (Corn root worm); experiment: Diabrotica balteata (Corn root worm), maize sprouts sprayed, L2 larvae mortality; details: 96 h, application rate of 200 ppm, L2 larvae on maize sprouts, assessed 4 days after infestation, read-out: control (mortality)
Method: Diabrotica balteata (Corn root worm):
Maize sprouts placed onto an agar layer in 24-well microtiter plates were treated with aqueous test solutions prepared from 10,000 ppm DMSO stock solutions by spraying. After drying, the plates were infested with L2 larvae (6 to 10 per well). The samples were assessed for mortality 4 days after infestation.

[5] = system: Euschistus heros (Neotropical Brown Stink Bug); experiment: Euschistus heros (Neotropical Brown Stink Bug): Feeding/contact activity; details: 120 h, application rate of 200 ppm, N2 nymphs on soybean leaves, assessed 5 days after infestation, read-out: control (mortality)
Method: Euschistus heros (Neotropical Brown Stink Bug): Feeding/contact activity Soybean leaves on agar in 24-well microtiter plates were sprayed with aqueous test solutions prepared from 10,000 ppm DMSO stock solutions. After drying the leaves were infested with N2 nymphs. The samples were assessed for mortality 5 days after infestation.

[6] = system: Plutella xylostella (Diamond back moth); experiment: Plutella xylostella (Diamond back moth): Feeding/contact activity; details: 120 h, application rate of 200 ppm, L2 larvae on artificial diet, assessed 5 days after infestation, read-out: control (mortality)
Method: Plutella xylostella (Diamond back moth): Feeding/contact activity
24-well microtiter plates with artificial diet were treated with aqueous test solutions prepared from 10,000 ppm DMSO stock solutions by pipetting. After drying, the plates were infested with L2 larvae (10 to 15 per well). The samples were assessed for mortality 5 days after infestation.

[7] = system: Spodoptera littoralis (Egyptian cotton leaf worm); experiment: Spodoptera littoralis (Egyptian cotton leaf worm): Feeding/contact activity; details: foliar, 72 h, application rate of 200 ppm, L1 larvae on cotton leaf discs, assessed 3 days after infestation, read-out: control (mortality)
Method: Spodoptera littoralis (Egyptian cotton leaf worm): Feeding/contact activity Cotton leaf discs were placed onto agar in 24-well microtiter plates and sprayed with aqueous test solutions prepared from 10,000 ppm DMSO stock solutions. After drying the leaf discs were infested with five L1 larvae. The samples were assessed for mortality 3 days after infestation.

Measured: mortality at 200 ppm

Cn1c(C(F)(C(F)(F)F)C(F)(F)F)cc(Br)c1-n1cc(-c2ccc(Cl)c(C(=O)NC3(C#N)CC3)c2)cn1 [Compound 2, 5-[1-[3-bromo-1-methyl-5-[1,2,2,2-tetrafluoro-1-(trifluoromethyl)ethyl]pyrrol-2-yl]pyrazol-4-yl]-2-chloro-N-(1-cyanocyclopropyl)benzamide]
≥ 80%: all assays above

CN(C(=O)c1cc(-c2cnn(-c3c(Br)cc(C(F)(C(F)(F)F)C(F)(F)F)n3C)c2)ccc1Cl)C1CC1 [Compound 4, 5-[1-[3-bromo-1-methyl-5-[1,2,2,2-tetrafluoro-1-(trifluoromethyl)ethyl]pyrrol-2-yl]pyrazol-4-yl]-2-chloro-N-cyclopropyl-N-methyl-benzamide]
not listed: [2]
≥ 80%: all other assays above

Cn1c(C(F)(C(F)(F)F)C(F)(F)F)cc(Br)c1-c1cc(-c2ccc(Cl)c(C(=O)NC3(C#N)CC3)c2)on1 [Compound 6, 5-[3-[3-bromo-1-methyl-5-[1,2,2,2-tetrafluoro-1-(trifluoromethyl)ethyl]pyrrol-2-yl]isoxazol-5-yl]-2-chloro-N-(1-cyanocyclopropyl)benzamide]
not listed: [2]
≥ 80%: all other assays above

Cn1c(C(F)(C(F)(F)F)C(F)(F)F)cc(C(F)(F)F)c1-n1cc(-c2ccc(Cl)c(C(=O)NC3(C#N)CC3)c2)cn1 [Compound 8, 2-chloro-N-(1-cyanocyclopropyl)-5-[1-[1-methyl-5-[1,2,2,2-tetrafluoro-1-(trifluoromethyl)ethyl]-3-(trifluoromethyl)pyrrol-2-yl]pyrazol-4-yl]benzamide]
not listed: [1] | [3]
≥ 80%: all other assays above

Cc1cc(C(F)(C(F)(F)F)C(F)(F)F)n(C)c1-n1cc(-c2ccc(Cl)c(C(=O)NC3(C#N)CC3)c2)cn1 [Compound 11, 2-chloro-N-(1-cyanocyclopropyl)-5-[1-[1,3-dimethyl-5-[1,2,2,2-tetrafluoro-1-(trifluoromethyl)ethyl]pyrrol-2-yl]pyrazol-4-yl]benzamide]
not listed: [3]
≥ 80%: all other assays above

COCn1c(C(F)(C(F)(F)F)C(F)(F)F)cc(Br)c1-n1cc(-c2ccc(Cl)c(C(=O)NC3(C#N)CC3)c2)cn1 [Compound 14, 5-[1-[3-bromo-1-(methoxymethyl)-5-[1,2,2,2-tetrafluoro-1-(trifluoromethyl)ethyl]pyrrol-2-yl]pyrazol-4-yl]-2-chloro-N-(1-cyanocyclopropyl)benzamide]
not listed: [2]
≥ 80%: all other assays above

Cn1c(SC(F)(F)F)c(Br)c(Br)c1-n1cc(-c2ccc(Cl)c(C(=O)NC3(C#N)CC3)c2)cn1 [Compound 16, 2-chloro-N-(1-cyanocyclopropyl)-5-[1-[3,4-dibromo-1-methyl-5-(trifluoromethylsulfanyl)pyrrol-2-yl]pyrazol-4-yl]benzamide]
not listed: [3] | [5]
≥ 80%: all other assays above

Cn1c(C(F)(c2cc(F)cc(F)c2)C(F)(F)F)cc(Br)c1-n1cc(-c2ccc(Cl)c(C(=O)NC3(C#N)CC3)c2)cn1 (stereo not drawn) [Compound 17, 5-[1-[3-bromo-5-[1-(3,5-difluorophenyl)-1,2,2,2-tetrafluoro-ethyl]-1-methyl-pyrrol-2-yl]pyrazol-4-yl]-2-chloro-N-(1-cyanocyclopropyl)benzamide]
not listed: [3] | [5]
≥ 80%: all other assays above

CCN(C(=O)c1cc(-c2cnn(-c3c(Br)cc(C(F)(C(F)(F)F)C(F)(F)F)n3C)c2)ccc1Cl)C1CC1 [Compound 22, 5-[1-[3-bromo-1-methyl-5-[1,2,2,2-tetrafluoro-1-(trifluoromethyl)ethyl]pyrrol-2-yl]pyrazol-4-yl]-2-chloro-N-cyclopropyl-N-ethyl-benzamide]
not listed: [2]
≥ 80%: all other assays above

Cn1c(C(F)(C(F)(F)F)C(F)(F)F)cc(C(N)=S)c1-n1cc(-c2ccc(Cl)c(C(=O)NC3(C#N)CC3)c2)cn1 [Compound 23, 5-[1-[3-carbamothioyl-1-methyl-5-[1,2,2,2-tetrafluoro-1-(trifluoromethyl)ethyl]pyrrol-2-yl]pyrazol-4-yl]-2-chloro-N-(1-cyanocyclopropyl)benzamide]
not listed: [2]
≥ 80%: all other assays above

Cn1c(C(F)(c2cc(Cl)cc(Cl)c2)C(F)(F)F)cc(Cl)c1-n1cc(-c2ccc(Cl)c(C(=O)NC3(C#N)CC3)c2)cn1 (stereo not drawn) [Compound 30, 2-chloro-5-[1-[3-chloro-5-[1-(3,5-dichlorophenyl)-1,2,2,2-tetrafluoro-ethyl]-1-methyl-pyrrol-2-yl]pyrazol-4-yl]-N-(1-cyanocyclopropyl)benzamide]
not listed: [1] | [3]
≥ 80%: all other assays above

Cn1c(C(F)(F)C(F)(F)F)cc(Cl)c1-n1cc(-c2ccc(Cl)c(C(=O)NC3(C#N)CC3)c2)cn1 [Compound 33]
not listed: [2]
≥ 80%: all other assays above

Cn1c(C(F)(C(F)(F)F)C(F)(F)F)cc(I)c1-n1cc(-c2ccc(Cl)c(C(=O)NC3(C#N)CC3)c2)cn1 [Compound 34, 2-chloro-N-(1-cyanocyclopropyl)-5-[1-[3-iodo-1-methyl-5-[1,2,2,2-tetrafluoro-1-(trifluoromethyl)ethyl]pyrrol-2-yl]pyrazol-4-yl]benzamide]
not listed: [3]
≥ 80%: all other assays above
